Experimental data published in patent US10426740B1, “Compositions and methods to inhibit stem cell and progenitor cell binding to lymphoid tissue and for regenerating germinal centers in lymphatic tissues” (AVM BIOTECHNOLOGY, LLC, priority 2010, dated 2019).

Assays:
[1] = tested on: spleen; assay: Splenic sequestration and circulating numbers of injected CTG-labeled stem cells, flow cytometry (Example 14); assay type: in vivo, mouse; conditions: 1 mg IP days -7, -4, -1 (HED 7.4 mg/kg)
Text: Control mice (n=4) were IP injected with the same volume per body weight of 70% ethanol diluted 1:10 in PBS. Sixty minutes later the mice were sacrificed by exsanguination and spleens and blood collected for flow cytometry. The spleens were dissociated to single cell suspensions prior to flow cytometry. CTG-labeled bone marrow mononuclear stem cells were detected in the spleen and lysed whole blood using flow cytometry.

[2] = tested on: equine bone marrow MSC; assay: Osteocyte, chondrocyte and adipocyte differentiation of MSC from treated horses (Example 21); assay type: in vivo, horse; conditions: for osteocyte differentiation: not different
Experimental: 1 g of Alizarin Red S (Sigma-Aldrich) was mixed with 50 ml of DI water to make a 50 ml solution of Alizarin Red S 2%. The pH of the Alizarin Red S solution was adjusted to 4.1-4.3 using ammonium hydroxide. The solution was filtered through a vacuum filtration system, then transferred to a 50 ml conical tube and stored protected from light.
250 mg of Oil Red O (Sigma-Aldrich) was added to 50 mL of isopropanol to make a 50 ml solution of Oil Red O 0.5%. The solution was mixed well, then filtered through a vacuum filtration system. After that, it was stored as a stock solution in a 50 ml conical tube wrapped in aluminum foil protected from light. On the staining day, 3 parts of stock Oil Red O 0.5% were mixed with 2 parts of DI water to make a working stock solution. This solution was incubated for 10 min and the forming precipitate removed by filtration through a sterile filter.
50 mg of Safranin O (Sigma-Aldrich) was added to 50 ml of DI water to make a 50 ml solution of Safranin O 0.1%. The solution was mixed well, then filtered through a vacuum filtration system. After that, it was stored in 50 ml conical tube protected from light.
After BM withdrawal from each vial for the Giemsa staining assay, another 100 μl of BM was withdrawn, and plated in CFU-F assay media (10 ml medium per T25 flasks; 2× total) 36 hours after it was extracted from the horse. MSCs were passaged in MesenCult™ MSC Basal Medium (Human; growth medium; including stimulatory supplement) until passage number 3 (P3). After trypsinization of the cells, they were mixed with an equivalent volume of growth medium, centrifuged (230 g for 3 min at RT) and resuspended in 1 ml of growth medium. Cells were counted and seeded using 30,000 cells/well of a 12 well plate (30,000 cells/well seeded in 3 wells; T1, T2 and one negative control). The seeded cells (P4) of T1 and T2 were left expanding in growth medium for two days, followed by a medium change into osteocyte differentiation medium (Stem Pro Osteocyte Differentiation Basal Medium and supplement; Gibco). The latter was changed every 2-3 days for all the plates. Morphological changes were documented by taking images using the EVOS XL Core microscope. Day 1 corresponds to MSCs being in differentiation medium for 24 h, Day 2 for 48 h etc. Two time points (T1: Day 4 and T2: Day 7 with one 12-well plate for both time points) were chosen for the osteocyte staining (Alizarin Red S) to assess the onset as well as the differentiation extent of MSCs from AVM0703 vs Placebo treated horses. […]
MSCs were passaged in MesenCult™ MSC Basal Medium (Human; including stimulatory supplement) until passage number 4 (P4). […] Cells were counted and seeded using a density of 80,000 cells/well of a 12 well plate (80,000 cells/well seeded in 3 wells; T1, T2 and one negative control). […]

[3] = tested on: germinal center; assay: Germinal center intensity by FITC-PNA in spleen (Example 18); assay type: in vivo, mouse; conditions: about 48 hours, controls approximately 40
Experimental: The mice were sacrificed by exsanguination and then residual blood cells flushed out with 5 U heparin/ml PBS via retrograde flush into the thoracic jugular vein. The spleens were removed, weighed wet, and then fixed in 10% formalin. Subsequently the spleens were sectioned via proprietary methods and then incubated with FITC-PNA at 4 deg.C for 24 hours, washed, placed on slides and immunofluorescent images were captured. Metamorph software was used to quantify the immunofluorescent signal. Average germinal center intensity measured by FITC-PNA average intensity was approximately 40 in controls, reduced to about 33 at the 6 mg/kg HED, reduced to about 22.5 at the 9 mg/kg HED, and further reduced to about 15 at the 11 mg/kg HED.

[4] = tested on: equine bone marrow MSC; assay: Equine bone marrow CFU-F assay after IV dexamethasone (Example 21); assay type: in vivo, horse; conditions: Day 14 after plating; 3.18 mg/kg (HED 6 mg/kg) IV; placebo about 46.6
[5] = tested on: spleen; assay: In vivo sequestration of injected CTG-labeled MNC in the spleen, flow cytometry (Example 9); parameters: species or system mouse; conditions: cells injected day 7, one hour
[6] = tested on: blood lymphocytes; assay: Blood lymphocytes (CBC) after oral dexamethasone (Example 20); assay type: in vivo, mouse; conditions: placebo about 1700
[7] = tested on: active germinal centers in the spleen; assay: Dexamethasone pretreatment: ex vivo stem cell binding to splenic sections, spleen weight, MNC and germinal centers (Example 8)
[8] = tested on: osteoarthritis (OA), tendon injury, or osteochondral defect; assay: Equine outcome after stem cell (MSC) injection with dexamethasone pretreatment (Example 16); assay type: in vivo; conditions: 5.7 mg/kg HED, one horse
Experimental: Approximately 48 hours later male or female horses with osteoarthritis (OA), tendon injury, or osteochondral defect were intra-articularly (IA) or intra-tendon injected with either allogeneic adipose-derived mesenchymal stem cells (MSCs) or with autologous, bone marrow derived culture expanded MSCs.

[9] = tested on: tumor necrosis factor-alpha; conditions: cited from earlier work
[10] = single 1 mg, 7 days prior to harvest

With `C[C@@H]1C[C@H]2[C@@H]3CCC4=CC(=O)C=C[C@]4(C)[C@@]3(F)[C@@H](O)C[C@]2(C)[C@@]1(O)C(=O)CO` [dexamethasone] the “circulating numbers of CTG-stem cells” value ([1]; controls 4,500) was 49,000 CTG-stem cells, the “splenic sequestration 60 minutes after injection” value ([1]; controls 665,000) was 285,000 CTG-stem cells and the osteocyte differentiation ([2]; day 4 of assay, placebo 1.75) was 3.19. For the same compound, the chondrocyte culture area ([2]; day 6 of assay, placebo 23.4%) was 40.1%, the osteocyte differentiation ([2]; day 7 of assay, placebo 4.29) was 4.58 and the adipocyte numbers ([2]; day 24 of assay, placebo 4.8, no difference) was 7.4 adipocytes. For the same compound, the “average germinal center intensity measured by FITC-PNA average intensity” value (shortened to “average germinal center intensity”) ([3]; 6 mg/kg HED IP) was “about 33”, the “average germinal center intensity” value ([3]; 9 mg/kg HED IP) was “about 22.5” and the “average germinal center intensity” value ([3]; 11 mg/kg HED IP) was “about 15”. For the same compound, the “MSC number (CFU-F)” value [4] was “about 78.8 CFU-F”, the “reduction of MNC CTG total cell number accumulation in the spleen” value ([5]; 3 mgs total (1 mg ip day 0, 2 and 5)) was “approximately 70%” and the “reduction of MNC CTG total cell number accumulation in the spleen” value ([5]; total 2 mgs (1 mg ip day 0 and day 4)) was 33-43%. For the same compound, the lymphocytes ([6]; single acute HED 12 mg/kg oral on day -2) was “about 170 per microliter”, the lymphocytes ([6]; two repeat doses HED 6 mg/kg oral, day -2 and day -1) was “about 1000 per microliter” and the “reduction of mononuclear stem cell binding to spleen sections” value ([7]; day 7 after single 1 mg IP) was 30-40%. For the same compound, the “increase of percentage of stem cells within MNC fractions from whole blood or bone marrow compared to control (average)” value [7, 10] was 32%, the “reduction of PNA labeled germinal centers” value [7, 10] was “up to 24%” and the “reduction of average circulating MNC number” value [7, 10] was 34%. For the same compound, the “reduction of spleen weights (average)” value [7, 10] was 22% and the “return to work, tendon injury (DDFT grade 3)” value [8] was no more than 6 months.

For `Nc1cccc2c1CN(C1CCC(=O)NC1=O)C2=O` (stereo not drawn) [Lenalidomide], the “potency in inhibiting tumor necrosis factor-alpha relative to thalidomide” value [9] is given as 50,000 times.
